Experimental findings from PubChem BioAssay AID1963853 (Molecular Pharmacology Branch, DTP, NCI, 2024) are described below.

In this experiment the test system is 266295-075-R-J1-PDC spheroid viability. Briefly: Anticancer human tumor 266295-075-R-J1-PDC patient-derived head and neck squamous carcinoma cell line growth inhibition [POLQ]. Conditions: spheroids with HUVEC and MSC; for viability, T/C: stronger effect = lower value. How it is done: Multicellular complex tumor spheroid response to Polymerase (POL) inhibitors (novobiocin, ART-558, RP6685) in combination with a variety of drugs and investigational agents in selected tumor cell lines
The POL inhibitors (novobiocin, ART-558, and RP6685) were evaluated both individually and in combination with standard of care and investigational anticancer small molecules within a complex spheroid model of solid tumors. . Complex spheroids include a stromal component modeled by human endothelial cells (HUVEC) and fibroblasts modeled by human mesenchymal stem cells (MSCs). The concentration ranges selected for each drug and investigational agent were based upon clinically achievable concentrations if the clinical Cmax of the agent was known.
Compounds. The drugs and investigational agents: novobiocin (NSC847541), ART-558 (NSC835418), RP-6685 (NSC848927), peposertib (NSC802822), ceralasertib (NSC780249), elimusertib (NSC800525), camonsertib (NSC841442), AZD-1390 (NSC803789), olaparib (NSC753686), talazoparib (NSC767125), rucaparib (NSC756644), sotorasib (NSC818433), MRTX-1133 (NSC836407), SN-38 (NSC673596), topotecan (NSC609699), epotoside (NSC141540), doxorubicin (NSC123127), gemcitabine (NSC613327), 5-fluorouracil (NSC19893), paclitaxel (NSC125973), vemurafenib (NSC761431), MSA-2 (NSC828583), SN-011 (NSC837082), adavosertib (NSC754352), prexasertib (NSC758257), carboplatin (NSC241240) and oxaliplatin (NSC266046), were obtained from the National Cancer Institute (NCI) Developmental Therapeutics Program Chemical Repository (21). The FDA-approved anticancer drug set is available from the Developmental Therapeutics Program at https://dtp.cancer.gov/organization/dscb/obtaining/. […] The stock solutions were prepared in dimethyl sulfoxide (DMSO, Sigma-Aldrich, St. Louis, MO, cat. D2650), except for the platinum compounds which were prepared in saline (Quality Biological, Gaithersburg, MD, cat. 114-055-101), at 800-fold the tested concentration and stored at -70 degrees C prior to their use. All drugs and investigational agents were tested over a range starting from a high concentration at or near the clinical Cmax and decreasing in half-log increments. If the clinical Cmax for an agent had not been determined, the highest concentration tested was 10 microM, except for SN-38, which was tested at a high concentration of 1 microM.
Cell Culture. All cells were maintained in an incubator at 37 degrees C and 5% CO2 with 95% humidity. The PDC lines were cultured according to standard operating procedures established by the NCI PDMR (https://pdmr.cancer.gov). Table 3 of the manuscript, lists the cell lines along with the number of the three cell types plated to form the mct-spheroids and media for tumor cell growth. After thawing, all PDC lines, except 997537-175-T-J1-PDC and 415267-285-R-J2-PDC, were cultured in Matrigel-coated flasks prepared with a working solution of 1X Ham's F-12 nutrient mix, without supplementation (Thermo Fisher Scientific, cat. 11765054), 100 U/mL penicillin-streptomycin (Thermo Fisher Scientific, cat. 15140122), and 2.5% Matrigel (Corning Inc., Corning, NY, cat. 354248) for the first three passages. The two PDC lines 997537-175-T-J1-PDC and 415267-285-R-J2-PDC were cultured on uncoated flasks. The 857933-349-R-J2-PDC line was cultured in 6C/Colon 1B media containing advanced DMEM/F-12 (Thermo Fisher Scientific, cat. 12634028), 10 mM HEPES (Thermo Fisher Scientific, cat. 15630080), 1X GlutaMAX supplement (Thermo Fisher Scientific, cat. 35050061), 0.1 mg/mL primocin (InvivoGen, San Diego, CA, cat. ant-pm-2), 10% defined fetal bovine serum, heat inactivated (HyClone Laboratories Inc., Logan, UT, cat. SH30070.03HI), 50% L-WRN conditioned media (ATCC, cat. CRL-3276), 1.25 mM N-Acetyl-L-cysteine (Sigma-Aldrich, cat. A9165), 10 mM nicotinamide (Sigma-Aldrich, cat. N0636), 1X B-27 supplement (Thermo Fisher Scientific, cat. 17504044), 1X N-2 supplement (Thermo Fisher Scientific, cat. […]

Several values for one entry are separate records, joined by “and”; a condition that tells them apart may be missing. Equal entries are not always repeated. Where only a bound is given, the exact number is not on record here.
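Also: spheroids exposed to compounds for seven days before readout.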

As for `Nc1ccc(C#CCN(C(=O)Cc2ncc(C(F)(F)F)cc2C(F)(F)F)c2ccc(F)cc2)nn1`, the viability, T/C by setting is: (compound 0.316 µM) 102% [middle of 13 runs]; (compound 3.16 µM) 95.5% [middle of 13 runs]; (compound 10 µM) 96.3% [middle of 13 runs]. The IC50 (compound alone, run of 11/06/2023) was more than 10 µM.

With `C#Cc1c(F)ccc2cc(O)cc(-c3ncc4c(N5CC6CCC(C5)N6)nc(OCC56CCCN5CC(F)C6)nc4c3F)c12` (stereo not given), the viability, T/C (compound 0.0316 µM) was 88.8% and 94.8% and 100%; the viability, T/C (compound 0.1 µM) was 93.5% and 94.2% and 79.7%; the viability, T/C (compound 0.316 µM) was 81.2% and 69.6% and 68.8%; the viability, T/C (compound 1 µM) is 76.1% and 83.5% and 63.2%; the viability, T/C (compound 3.16 µM) is 66% and 76.4% and 54.8%; the viability, T/C (compound 10 µM) was 61.1% and 56.7% and 58%. For the same compound, the IC50 (curve of compound) was more than 10 µM.

Regarding `O=C(c1cc(Cc2n[nH]c(=O)c3ccccc23)ccc1F)N1CCN(C(=O)C2CC2)CC1` + COC1C(OC(N)=O)C(O)C(Oc2ccc3c(O)c(NC(=O)c4ccc(O)c(CC=C(C)C)c4)c(=O)oc3c2C)OC1(C)C, the IC50 (curve of first compound, second compound 0.0316 µM) was more than 10 µM; the half-maximal inhibitory concentration (IC50) (curve of first compound, second compound 0.1 µM) was more than 10 µM; the IC50 (curve of first compound, second compound 0.316 µM) was more than 10 µM; the IC50 (curve of first compound, second compound 1 µM) is more than 10 µM; the IC50 (curve of first compound, second compound 3.16 µM) was more than 10 µM; the 50% inhibitory concentration (IC50) (curve of first compound, second compound 10 µM) is more than 10 µM. For the same compound, the viability, T/C was 84.6% (second compound 0.0316 µM, first compound 0.0316 µM); 107% (second compound 0.0316 µM, first compound 0.1 µM); 84.8% (second compound 0.0316 µM, first compound 0.316 µM); 110% (second compound 0.0316 µM, first compound 1 µM); 87.7% (second compound 0.0316 µM, first compound 3.16 µM); 97.9% (second compound 0.0316 µM, first compound 10 µM). Further, the viability, T/C is 89.2% (second compound 0.1 µM, first compound 0.0316 µM); 114% (second compound 0.1 µM, first compound 0.1 µM); 89.9% (second compound 0.1 µM, first compound 0.316 µM); 93.7% (second compound 0.1 µM, first compound 1 µM); 98.6% (second compound 0.1 µM, first compound 3.16 µM); 84.6% (second compound 0.1 µM, first compound 10 µM). Further, the viability, T/C runs as follows: (second compound 0.316 µM, first compound 0.0316 µM) 101%; (second compound 0.316 µM, first compound 0.1 µM) 99.8%; (second compound 0.316 µM, first compound 0.316 µM) 88.9%; (second compound 0.316 µM, first compound 1 µM) 99.8%; (second compound 0.316 µM, first compound 3.16 µM) 93.6%; (second compound 0.316 µM, first compound 10 µM) 80%. Further, the viability, T/C was 98.1% (second compound 1 µM, first compound 0.0316 µM); 89.8% (second compound 1 µM, first compound 0.1 µM); 88.1% (second compound 1 µM, first compound 0.316 µM); 82.3% (second compound 1 µM, first compound 1 µM); 83.5% (second compound 1 µM, first compound 3.16 µM); 90.9% (second compound 1 µM, first compound 10 µM). For the same compound, the viability, T/C runs as follows: (second compound 3.16 µM, first compound 0.0316 µM) 96.6%; (second compound 3.16 µM, first compound 0.1 µM) 103%; (second compound 3.16 µM, first compound 0.316 µM) 104%; (second compound 3.16 µM, first compound 1 µM) 83.8%; (second compound 3.16 µM, first compound 3.16 µM) 100%; (second compound 3.16 µM, first compound 10 µM) 102%. For the same compound, the viability, T/C was 106% (second compound 10 µM, first compound 0.0316 µM); 89.7% (second compound 10 µM, first compound 0.1 µM); 90.8% (second compound 10 µM, first compound 0.316 µM); 89.4% (second compound 10 µM, first compound 1 µM); 112% (second compound 10 µM, first compound 3.16 µM); 81.4% (second compound 10 µM, first compound 10 µM).

In the case of `CC[C@@]1(O)C(=O)OCc2c1cc1n(c2=O)Cc2cc3c(CN(C)C)c(O)ccc3nc2-1`, the viability, T/C is 80.3% and 92.4% and 96.2% (compound 0.000316 µM); 96.8% and 98.5% and 96.1% (compound 0.001 µM); 80.3% and 78.6% and 92.5% (compound 0.00316 µM); 80.8% and 95.8% and 96.8% (compound 0.01 µM); 89.2% and 93.9% and 103% (compound 0.0316 µM); 82.4% and 82.3% and 87.1% (compound 0.1 µM). For the same compound, where the note is “curve of compound”, the half-inhibitory concentration (IC50) was more than 0.1 µM.
